System: bees
Experiment: Beekeeper field trial: winter survival of bee hives after feeding
Type: in vivo
Conditions: populations given only iron(II) fumarate
Procedure: In a trial, a number or beekeepers (16) used a solution of vinasse containing dissolved iron(II) fumarate with the goal of reducing instances of winter mortality and CCD. This solution was mixed with 100-200 ml of sugar syrup. The solution thus obtained was administered to bees with their feed. The quantities and results were as follows: A total of approximately 1,000 mg of iron(II) fumarate, or 333 mg Fe (i.e. 5.8 millimoles iron(II)) was administered per 5 kg of bees. This quantity was administered in small portions. The initial moments of the series administrations ranged from 5 August 2011 to 15 September 2011. The administration frequencies ranged from one time per week to one time per 3 days. If administration was started late in the season, administration was one time per 3 days to ensure that a consistent total amount of iron(II) fumarate was administered across the test populations. […] In a control populations given only pure vinasse the queens were dead within 14 days; these populations were then not viable and after the death of the queen, remaining bees in the population were merged with another population. In one case, the total amount of iron(II) fumarate and vinasse was added to 15 kg of sugar syrup. This emulsion was administered as a winter sugar, until the mixture was consumed. […]

## O=C([O-])/C=C/C(=O)[O-].[Fe+2] [iron(II) fumarate]
  winter survival of control populations: survived the winter, but in a very weak state
